From patent publication US9840627B2, “Application of camptothecin and derivatives thereof as antifouling agent” (priority 2013, dated 2017)
Like-named read-outs stand apart in the source and are kept apart here.

Assays:
Type in all cases: in vivo
[1] = test system: cypris larvas of Balanus albicostatus; experiment: Inhibitory effect on the attachment of barnacles (cypris larvas); details: 48 h, membrane filtrated seawater
Source text: Barnacles are sessile Cirripedia with calcareous shells and widespread. They firmly attach to the surfaces of vessels and various offshore artificial facilities, and are one of the major marine fouling organisms as well as one of the major target organisms in the study of antifouling technology. Adults of Balanus albicostatus were collected from the rocks and piers at Baicheng Coast in Xiamen, and their cypris larvas were obtained by culturing in laboratory. It is the attachment of the cypris larvas that causes the barnacles to change from swimming life to attaching life. Thus, inhibition of the attachment of the cypris larvas can verify the antifouling activity of the compounds. CPT and 10-hydroxyl-CPT were dissolved in ethyl acetate respectively, and a series of concentration gradient were set according to the results of pre-experiment. 1 ml of each solution was taken to a petri dish respectively, 1 ml of ethyl acetate was taken to another blank petri dish serving as control group. After the solvents evaporated completely and the compounds were distributed evenly on the bottom surfaces and the side surfaces of the petri dishes, each petri dish was added with 10 ml of membrane filtrated seawater (filtrated by membrane with pore size of 0.22 μm, the same below). […]

[2] = test system: larvas of Bugula neritina; experiment: Inhibitory effect on the attachment of Bugula larvas; details: 48 h, membrane filtrated seawater
Source text: Bugulas are marine bryozoan and widespread in various sea areas in the world. They often attach to the surfaces of marine artificial facilities like mariculture netting, cages, vessels, buoys, etc., and they are important marine fouling organisms as well. Bugula neritina, also called multicellular Bugula, its adults were collected from the fish culture net bins in Western sea area of Xiamen and put into an aquarium filled with fresh seawater after back to the laboratory to induce the release of their swimming larvas. It is the attachment of their swimming larvas that causes the Bugulas to change from swimming life to attaching life. Thus, inhibition of the attachment of the swimming larvas can verify the antifouling activity of the compounds. CPT and 10-hydroxyl-CPT were dissolved in ethyl acetate respectively, and a series of concentration gradient were set according to the results of pre-experiment. 1 ml of each solution was taken to a petri dish respectively; 1 ml of ethyl acetate was taken to another blank petri dish serving as control group. After the solvents evaporated completely and the compounds were distributed evenly on the bottom surfaces and the side surfaces of the petri dishes, each petri dish was added with 10 ml of membrane filtrated seawater. […]

[3] = test system: Perna viridis; experiment: Inhibitory effect on the attachment of mussels by produced byssal threads; details: 24 h culture at room temperature
Source text: Mussels are common bivalve in marine fouling biocenoses, widespread, and are one of the major target organisms in the study of marine antifouling technology. Mussels explore surfaces by their feet, looking for attachment substrate. If proper surfaces for attaching were found, mussels would produce byssal threads to attach to them. […] Perna viridis were collected from the fish net bins in offshore sea area of Zhangzhou, and in which those with shell length of 1.4˜2.4 cm were selected and washed with seawater, followed by gent cut-off of the byssal threads. And then the Perna viridis were washed with membrane filtrated seawater. CPT were first dissolved in a trace of dimethyl sulfoxide, and then mixed with membrane filtrated seawater to prepare a series of concentration gradient. 4 ml of each solution was taken into a 12-well plate, and each well was added with one Perna viridis. 4 ml of membrane filtrated seawater containing a trace of dimethyl sulfoxide and one Perna viridis were added into the control group. Each experimental group and control group had 8 paralleled groups. After 24-hours culture at room temperature, the amount of byssal threads produced by Perna viridis were observed, and the half inhibition concentration of CPT for the attachment of Perna viridis by produced byssal threads, EC50, were determined.

[4] = test system: marine large fouling organisms; details: for coverage ratio of fouling organisms (%, Mean ± SE): antifouling agent 20% by weight in paint, panels in sea area, Xiamen
Protocol: The panel test in natural sea area was carried out referring to the national standard GB/T5370-2007 “Method for testing antifouling panels in shallow submergence”. […] The tested panels were fixed in iron frames after the paints had dried, and they were hanged on the test buoyant rafts in the sea area near Dalipu Island in Xiamen in June, 2010. After the tested panels had been immersed in seawater up to 3, 6, 9 and 12 months, they were then photographed, and the coverage ratios of the fouling organisms in each coated sample areas were analyzed and counted. Herein, the coverage ratio of the fouling organisms is the ratio of surface area covered by marine large fouling organisms in the sample area divided by the whole surface area in the sample area (the same below), and the lower the value is, the higher the antifouling efficiency will be.

SMILES	half inhibition concentration (EC50) for the attachment of cypris larvas of Balanus albicostatus [1]	EC50 for the attachment of larvas of Bugula neritina [2]	EC50 for the attachment of Perna viridis by produced byssal threads [3]	coverage ratio of fouling organisms (%, Mean ± SE) ([4]; after 3 months)	coverage ratio of fouling organisms (%, Mean ± SE) ([4]; after 6 months)	coverage ratio of fouling organisms (%, Mean ± SE) ([4]; after 9 months)	coverage ratio of fouling organisms (%, Mean ± SE) ([4]; after 12 months)	antifouling term ([4]; paints prepared with CPT as antifouling agent, panel test in sea area)
CC[C@@]1(O)C(=O)OCc2c1cc1n(c2=O)Cc2cc3cc(O)ccc3nc2-1 [10-hydroxyl-CPT]	1.78 µg/mL	5.93 µg/mL	–	–	–	–	–	–
CC[C@@]1(O)C(=O)OCc2c1cc1n(c2=O)Cc2cc3ccccc3nc2-1 [CPT, Camptothecin (CPT)]	1.73 µg/mL	15.02 µg/mL	10.78 µg/mL	0.15 ± 0.12%	11.6 ± 6.68%	9.03 ± 2.64%	39.67 ± 10.43%	up to 12 months
[Cu].[O]=[Cu] [Cu2O, cuprous oxide, reference compound]	–	–	–	7.23 ± 2.02%	91.75 ± 2.90%	70.91 ± 13.40%	98.88 ± 0.48%	–
